Here are results for six molecules from PMC12518037, “Design, Synthesis, Biological Evaluation, and In Silico Study of Tetrahydropyridines as Prospective Monoamine Oxidase Inhibitors” (ChemistryOpen, 2025).

Assay [1] has as its target T1, MAO‐B (Homo sapiens, UniProt P27338).
T1 sequence (P27338 2-520): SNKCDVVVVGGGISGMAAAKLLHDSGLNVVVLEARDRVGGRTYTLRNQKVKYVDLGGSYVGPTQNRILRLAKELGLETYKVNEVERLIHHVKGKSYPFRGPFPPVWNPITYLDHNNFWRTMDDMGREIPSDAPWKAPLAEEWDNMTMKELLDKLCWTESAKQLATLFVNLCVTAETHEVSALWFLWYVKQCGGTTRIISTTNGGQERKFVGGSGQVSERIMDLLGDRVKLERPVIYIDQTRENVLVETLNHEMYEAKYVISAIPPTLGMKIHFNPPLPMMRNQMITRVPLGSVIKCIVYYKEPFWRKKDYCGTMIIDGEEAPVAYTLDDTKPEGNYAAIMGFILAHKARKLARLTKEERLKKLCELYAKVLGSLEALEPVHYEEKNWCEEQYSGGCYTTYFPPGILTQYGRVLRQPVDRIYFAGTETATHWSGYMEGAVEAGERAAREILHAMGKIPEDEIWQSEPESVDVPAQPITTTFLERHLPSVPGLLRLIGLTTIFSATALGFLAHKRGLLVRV
As to the kind of experiment: MAO-B inhibition assay (Amplex red fluorescence, tyramine substrate). The class given is biochemical. Particulars: percent inhibition observed at 100 μM. The method, then:
(§1) The range of compounds used in the study started at 1 mM for the initial screening to determine the percentage of inhibition. […] For 10 minutes, the reaction mixture was incubated at 37 °C. Tyramine, a substrate with a final concentration of 0.30 mM, was added to each well after 15 minutes, followed by 10 μL of Amplex red, a fluorogenic substrate. The FLUOstar Omega fluorescence plate reader (BMG Labtech GmbH, Ortenberg, Germany) was used to detect the change in fluorescence.

Assay [2] addresses T2, MAO‐A (Homo sapiens, UniProt P21397).
T2 sequence (P21397 1-527): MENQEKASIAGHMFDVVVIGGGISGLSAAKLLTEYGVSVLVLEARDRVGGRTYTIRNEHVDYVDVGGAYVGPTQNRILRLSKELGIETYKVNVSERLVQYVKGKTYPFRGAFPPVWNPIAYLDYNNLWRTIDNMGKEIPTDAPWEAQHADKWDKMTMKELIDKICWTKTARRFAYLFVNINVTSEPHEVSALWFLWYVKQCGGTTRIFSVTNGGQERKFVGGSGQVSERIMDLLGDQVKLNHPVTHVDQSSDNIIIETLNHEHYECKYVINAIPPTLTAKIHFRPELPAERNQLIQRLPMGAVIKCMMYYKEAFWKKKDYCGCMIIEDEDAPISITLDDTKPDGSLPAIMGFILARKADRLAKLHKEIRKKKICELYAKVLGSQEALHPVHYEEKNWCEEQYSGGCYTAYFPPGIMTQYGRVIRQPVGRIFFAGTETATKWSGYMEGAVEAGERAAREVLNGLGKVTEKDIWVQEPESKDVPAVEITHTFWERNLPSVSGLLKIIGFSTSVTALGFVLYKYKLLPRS
As to the kind of experiment: MAO-A inhibition assay (Amplex red fluorescence, tyramine substrate). The assay is classed as biochemical. The following applies: percent inhibition observed at 100 μM. The method, then: as §1

A value given as a limit tells only on which side of the number the result lay.

Regarding `CCOC(=O)C1=C(Nc2ccc(OC)cc2)CC(c2ccc(Cl)cc2)N(c2ccc(OC)cc2)C1c1ccc(Cl)cc1` (centres unmarked) [4 i, Ethyl 2,6‐bis(4‐chlorophenyl)‐1‐(4‐methoxyphenyl)‐4‐(4‐methoxyphenylamino)‐1,2,5,6‐tetrahydropyridine‐3‐carboxylate], the inhibition at 100 µM in assay [1] and in assay [2] was under 50% throughout.

In assay [2], `CCOC(=O)C1=C(Nc2ccc(Cl)cc2)CC(c2ccccc2)N(c2ccc(Cl)cc2)C1c1ccccc1` (centres unmarked) [4 b, Ethyl 1‐(4‐chlorophenyl)‐4‐(4‐chlorophenylamino)‐2,6‐diphenyl‐1,2,5,6‐tetrahydropyridine‐3‐carboxylate] displayed an inhibition at 100 µM of 40%.

In assay [2], `CCOC(=O)C1=C(Nc2ccc(Br)cc2)CC(c2ccc(Cl)cc2)N(c2ccc(Br)cc2)C1c1ccc(Cl)cc1` (centres unmarked) [4 h, Ethyl 1‐(4‐bromophenyl)‐4‐(4‐bromophenylamino)‐2,6‐bis(4‐chlorophenyl)‐1,2,5,6‐tetrahydropyridine‐3‐carboxylate] came in with an inhibition at 100 µM of under 50%.

On to `CCOC(=O)C1=C(Nc2ccc(Cl)cc2)CC(c2ccc([N+](=O)[O-])cc2)N(c2ccc(Cl)cc2)C1c1ccc([N+](=O)[O-])cc1` (centres unmarked) [4 l, Ethyl 1‐(4‐chlorophenyl)‐4‐(4‐chlorophenylamino)‐2,6‐bis(4‐nitrophenyl)‐1,2,5,6‐tetrahydropyridine‐3‐carboxylate], for which the inhibition at 100 µM in assay [1] worked out at 23%.

On to `CCOC(=O)C1=C(Nc2ccc(C)cc2)CC(c2ccc(Cl)cc2)N(c2ccc(C)cc2)C1c1ccc(Cl)cc1` (centres unmarked) [4 j, Ethyl 4‐(p–toluidino)‐2,6‐bis(4‐chlorophenyl)‐1‐p–tolyl‐1,2,5,6‐tetrahydropyridine‐3‐carboxylate], for which the inhibition at 100 µM in assay [1] and in assay [2] was under 50% throughout.

As to `CCOC(=O)C1=C(Nc2ccc(Br)cc2)CC(c2ccc([N+](=O)[O-])cc2)N(c2ccc(Br)cc2)C1c1ccc([N+](=O)[O-])cc1` (centres unmarked) [4 m, Ethyl 1‐(4‐bromophenyl)‐4‐(4‐bromophenylamino)‐2,6‐bis(4‐nitrophenyl)‐1,2,5,6‐tetrahydropyridine‐3‐carboxylate], the inhibition at 100 µM in assay [1] stood at 46%.

The term inhibition denotes the percentage by which the read-out fell short of the control. High values mean a response far below the control, low ones a response near the control.
